Source: patent US20220365085A1, “B[…], THE USE OF B[…], SENSORS […] WITH THE SAID B[…] AND THE DETECTION METHOD OF SARS-COV-2 VIRUS” (SENSDX SPÓLKA AKCYJNA, priority 2019, published 2022)
Numbered stars: 1 amine (or outer) side, 2 acyl side, 3 side chain; on linkers, the order of the positions; unused ones are H or OH. Square brackets hold non-standard residues; d marks the D form. Peptide text beside a SMILES is read from it. * marks the point of attachment. ξ: configuration not given here. X1 = O=C([C@@H](N[*:1])c1cnc[nH]1)[*:2]; Ile(3ξ) = CCC(C)[C@H](N)C(=O)O; Lauroyl = CCCCCCCCCCCC(=O)*

Tested on: SARS-CoV-2 virus

For `CCCCCCCCCCCC(=O)N[C@H](C(=O)N[C@H](C(=O)N[C@@H](CO)C(=O)N[C@@H](CC(N)=O)C(=O)N[C@@H](Cc1c[nH]cn1)C(=O)N[C@@H](CO)C(=O)N[C@@H](Cc1c[nH]cn1)C(=O)N[C@@H](Cc1c[nH]cn1)C(=O)N[C@@H](Cc1c[nH]cn1)C(=O)N[C@@H](CC(=O)O)C(=O)N[C@H](C(=O)N[C@@H](CC(C)C)C(N)=O)C(C)CC)C(C)CC)c1cnc[nH]1` (stereo partly drawn) [11-KOD1, 11-Mrcpt-HISNHSHHHDIL-NH2] (Lauroyl-[X1][Ile(3ξ)]SNHSHHHD[Ile(3ξ)]L-NH2), the “result of the measurement on a negative swab (impedance changes on the sensor)” value was “no impedance changes” and the “result of the measurement on a positive swab (presence of the virus in the sample)” value ([…], MOBI SensDx reader, positive when Δ>10%) was “positive result (+)”.
